Data taken from patent US11458171B2, “Engineering stem cells for cancer therapy” (CHINA MEDICAL UNIVERSITY, priority 2018, dated 2022).

System: UMSCs
Assay: Effect of GCV on plain UMSCs
Assay type: cell-based, human
Conditions: GCV alone on unmodified UMSCs

With Nc1nc(O)c2ncn(COC(CO)CO)c2n1 [GCV, ganciclovir] the “cell proliferation of UMSCs” value was “did not affect cell proliferation”.
